# Patent US8710043B2, “TRPM8 antagonists and their use in treatments” (Amgen Inc., priority 2011, dated 2014)
# Biological target: T1, human TRPM8 (Homo sapiens, UniProt Q7Z2W7)
# T1 construct: expressed in transfected cells; host or cells: Chinese hamster ovary (CHO) cells, T-REx tetracycline-inducible system, co-transfected with aequorin
# Experiment: Luminescence readout assay for measuring intracellular calcium, icilin activation
# Format: cell-based
# Conditions: CHO cells expressing human TRPM8, aequorin luminescence, 1 μM icilin activation; read-out: hTRPM8 IC50
# How it was run: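 The read-out was luminescence reporting intracellular calcium, recorded by a CCD-based luminometer. Compounds were preincubated for 2.5 min before agonist challenge with 1 μM icilin. Human TRPM8 was expressed in a stable T-REx CHO line, induced with 0.5 μg/mL tetracycline the day before.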
# T1 sequence (Q7Z2W7 whole entry): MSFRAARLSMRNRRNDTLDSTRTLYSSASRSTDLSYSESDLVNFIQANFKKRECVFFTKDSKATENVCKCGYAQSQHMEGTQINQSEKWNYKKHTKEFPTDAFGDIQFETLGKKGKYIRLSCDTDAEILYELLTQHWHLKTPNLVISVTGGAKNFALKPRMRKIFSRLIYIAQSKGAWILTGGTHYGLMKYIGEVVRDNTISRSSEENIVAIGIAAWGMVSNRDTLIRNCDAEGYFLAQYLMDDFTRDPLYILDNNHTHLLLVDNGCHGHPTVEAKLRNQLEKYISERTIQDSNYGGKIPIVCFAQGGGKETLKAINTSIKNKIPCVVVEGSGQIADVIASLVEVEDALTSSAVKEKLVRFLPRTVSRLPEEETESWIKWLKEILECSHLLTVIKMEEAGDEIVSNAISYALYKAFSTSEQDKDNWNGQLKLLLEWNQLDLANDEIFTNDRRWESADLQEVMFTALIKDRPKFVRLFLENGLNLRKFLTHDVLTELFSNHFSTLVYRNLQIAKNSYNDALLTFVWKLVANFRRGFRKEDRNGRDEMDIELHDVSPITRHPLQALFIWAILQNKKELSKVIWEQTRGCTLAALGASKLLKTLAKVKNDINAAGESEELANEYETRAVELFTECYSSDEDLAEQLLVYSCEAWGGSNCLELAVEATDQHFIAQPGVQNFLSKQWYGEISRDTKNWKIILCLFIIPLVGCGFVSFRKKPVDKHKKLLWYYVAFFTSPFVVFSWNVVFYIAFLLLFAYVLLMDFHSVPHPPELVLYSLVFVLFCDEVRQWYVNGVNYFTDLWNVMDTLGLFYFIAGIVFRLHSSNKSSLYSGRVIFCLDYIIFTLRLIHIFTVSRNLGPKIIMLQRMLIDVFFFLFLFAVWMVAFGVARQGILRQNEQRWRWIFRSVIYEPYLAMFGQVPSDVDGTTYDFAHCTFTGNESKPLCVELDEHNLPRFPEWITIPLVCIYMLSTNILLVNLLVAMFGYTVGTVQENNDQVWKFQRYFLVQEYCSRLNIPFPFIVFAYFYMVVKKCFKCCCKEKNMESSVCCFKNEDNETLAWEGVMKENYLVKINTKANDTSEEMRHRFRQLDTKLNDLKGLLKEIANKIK
row,Structure (SMILES),IC50
1,"O=C(N[C@@H](c1ccc(C(F)(F)F)cc1)c1ncccc1F)c1ccc(=O)n(Cc2ccccc2)c1 [Example 371, (S)-1-benzyl-N-((3-fluoropyridin-2-yl)(4-(trifluoromethyl)phenyl)methyl)-6-oxo-1,6-dihydropyridine-3-carboxamide]",0.19 µM
2,"O=C(N[C@@H](c1ccc(C(F)(F)F)cc1)c1ncccc1C(F)(F)F)c1cnc2ccccc2c1 [Example 230, (S)-N-((4-(trifluoromethyl)phenyl)(3-(trifluoromethyl)pyridin-2-yl)methyl)quinoline-3-carboxamide]",0.0837 µM
3,"O=C(N[C@@H](c1ccc(OC(F)(F)F)c(F)c1)c1ncccc1F)c1ccc(O)cn1 [Example 389, (S)-N-((3-fluoro-4-(trifluoromethoxy)phenyl)(3-fluoropyridin-2-yl)methyl)-5-hydroxypicolinamide 2,2,2-trifluoroacetate]",0.0183 µM
4,"O=C1CNc2cc(C(=O)N[C@@H](c3ccc(C(F)(F)F)cc3)c3ncccc3F)ccc2O1 [Example 75, (S)-N-((3-fluoropyridin-2-yl)(4-(trifluoromethyl)phenyl)methyl)-2-oxo-3,4-dihydro-2H-benzo[b][1,4]oxazine-6-carboxamide]",0.0391 µM
5,"Cn1cc(C(=O)N[C@@H](c2ccc(C(F)(F)F)cc2)c2ncccc2Cl)ccc1=O [Example 249, (S)-N-((3-chloropyridin-2-yl)(4-(trifluoromethyl)phenyl)methyl)-1-methyl-6-oxo-1,6-dihydropyridine-3-carboxamide 2,2,2-trifluoroacetate]",0.0132 µM
6,"O=C(NC(c1ccc(OC(F)(F)F)c(F)c1)c1cccc(F)c1F)c1ccc(=O)[nH]c1 (stereo not shown) [Example 412, N-((2,3-difluorophenyl)(3-fluoro-4-(trifluoromethoxy)phenyl)methyl)-6-oxo-1,6-dihydropyridine-3-carboxamide]",0.048 µM
7,"O=C(O)c1ccc(C(=O)N[C@@H](c2ccc(OC(F)(F)F)cc2)c2ncccc2F)nc1 [Example 272, (S)-6-(((3-Fluoropyridin-2-yl)(4-(trifluoromethoxy)phenyl)-methyl)carbamoyl)nicotinic Acid]",0.0119 µM
8,"O=C(N[C@@H](c1ccc(OC(F)(F)F)c(F)c1)c1ccccn1)c1ccc2[nH]cnc2c1 [Example 393, (S)-N-((3-fluoro-4-(trifluoromethoxy)phenyl)(pyridin-2-yl)methyl)-1H-benzo[d]imidazole-5-carboxamide]",0.0061 µM
9,"CC(C)(C)Cc1cccnc1[C@@H](NC(=O)c1ccc2ncccc2c1)c1ccc(C(F)(F)F)cc1 [Example 236, (S)-N-((3-neopentylpyridin-2-yl)(4-(trifluoromethyl)phenyl)methyl)quinoline-6-carboxamide]",0.239 µM
10,"COc1ccncc1C(=O)N[C@@H](c1ccc(C(F)(F)F)cc1)c1ncccc1C(F)(F)F [Example 55, (S)-4-methoxy-N-((4-(trifluoromethyl)phenyl)(3-(trifluoromethyl)pyridin-2-yl)methyl)nicotinamide]",0.0304 µM
11,"O=C(N[C@@H](c1ccc(C(F)(F)F)cc1)c1ncccc1C(F)(F)F)c1ccc2nccc(O)c2c1 [Example 109, (S)-4-hydroxy-N-((4-(trifluoromethyl)phenyl)(3-(trifluoromethyl)pyridin-2-yl)methyl)quinoline-6-carboxamide 2,2,2-trifluoroacetate]",0.0639 µM
12,"O=C(N[C@@H](c1ccc(OC(F)(F)F)c(F)c1)c1ncccc1F)c1cc2n(n1)CCCO2 [Example 355, (S)-N-((3-fluoro-4-(trifluoromethoxy)phenyl)(3-fluoropyridin-2-yl)methyl)-6,7-dihydro-5H-pyrazolo[5,1-b][1,3]oxazine-2-carboxamide]",0.0385 µM
13,"O=C(N[C@@H](c1ccc(Cl)c(Cl)c1)c1ncccc1C(F)(F)F)c1ccc(=O)[nH]c1 [Example 3, (S)-N-((3,4-dichlorophenyl)(3-(trifluoromethyl)pyridin-2-yl)methyl)-6-hydroxynicotinamide]",0.0177 µM
14,"O=C1Cc2cc(C(=O)N[C@@H](c3ccc(C(F)(F)F)cc3)c3ncccc3F)ccc2N1 [Example 70, (S)-N-((3-fluoropyridin-2-yl)(4-(trifluoromethyl)phenyl)methyl)-2-oxoindoline-5-carboxamide]",0.0152 µM
15,"O=C(N[C@@H](c1ccc(C(F)(F)F)cc1)c1ncccc1F)c1ccc2nnnn2c1 [Example 307, (S)-N-((3-fluoropyridin-2-yl)(4-(trifluoromethyl)phenyl)methyl)tetrazolo[1,5-a]pyridine-6-carboxamide]",0.0454 µM
16,"COC(=O)c1cccc(C(=O)N[C@@H](c2ccc(C(F)(F)F)cc2)c2ncccc2C(F)(F)F)c1 [Example 189, (S)-methyl 3-(((4-(trifluoromethyl)phenyl)(3-(trifluoromethyl)pyridin-2-yl)methyl)carbamoyl)benzoate]",0.0806 µM
17,"O=C(N[C@@H](c1cccc(F)c1)c1ncccc1C(F)(F)F)c1ccc2cccnc2c1 [Example 17, (S)-N-((3-fluorophenyl)(3-(trifluoromethyl)pyridin-2-yl)methyl)quinoline-7-carboxamide]",0.23 µM
18,"O=C(N[C@@H](c1ccc(OC(F)(F)F)c(F)c1)c1ncccc1F)c1cc2[nH]c(=O)oc2cn1 [Example 437, (S)—N-((3-Fluoro-4-(trifluoromethoxy)phenyl)(3-fluoropyridin-2-yl)methyl)-2-oxo-1,2-dihydrooxazolo[5,4-c]pyridine-6-carboxamide]",0.225 µM
19,"O=C(NC(c1ccc(OC(F)(F)F)c(F)c1)c1ccc(F)cc1F)c1ccc(=O)[nH]c1 (stereo not shown) [Example 413, N-((2,4-difluorophenyl)(3-fluoro-4-(trifluoromethoxy)phenyl)methyl)-6-oxo-l,6-dihydropyridine-3-carboxamide]",0.197 µM
20,"Cn1cnc2ccc(C(=O)N[C@@H](c3ccc(C(F)(F)F)cc3)c3ncccc3F)cc21 [Example 395, (S)-N-((3-fluoropyridin-2-yl)(4-(trifluoromethyl)phenyl)methyl)-1-methyl-1H-benzo[d]imidazole-6-carboxamide]",0.0066 µM
21,O=C(Cc1ccccc1OC(F)(F)F)N[C@@H](c1ccc(C(F)(F)F)cc1)c1ncccc1C(F)(F)F [Example 164],0.294 µM
22,"O=C(N[C@@H](c1ccc(OC(F)(F)F)c(F)c1)c1ncccc1F)c1c[nH]c(=O)c(C(F)(F)F)c1 [Example 402, (S)-N-((3-fluoro-4-(trifluoromethoxy)phenyl)(3-fluoropyridin-2-yl)methyl)-6-oxo-5-(trifluoromethyl)-1,6-dihydropyridine-3-carboxamide]",0.12 µM
23,"Cc1cc(C(=O)N[C@@H](c2ccc(C(F)(F)F)cc2)c2ncccc2F)ccn1 [Example 53, (S)-N-((3-fluoropyridin-2-yl)(4-(trifluoromethyl)phenyl)methyl)-2-methylisonicotinamide]",0.0455 µM
24,"O=C(N[C@@H](c1ccc(C(F)(F)F)cc1)c1ncccc1F)c1ccc(=O)n(C(F)F)c1 [Example 396, (S)-1-(difluoromethyl)-N-((3-fluoropyridin-2-yl)(4-(trifluoromethyl)phenyl)methyl)-6-oxo-1,6-dihydropyridine-3-carboxamide]",0.0201 µM
25,"CC(C)Cc1cc(C(=O)N[C@@H](c2ccc(C(F)(F)F)c(F)c2)c2ncccc2C(F)(F)F)c2ccccc2n1 [Example 156, (S)-N-((3-fluoro-4-(trifluoromethyl)phenyl)(3-(trifluoromethyl)pyridin-2-yl)methyl)-2-isobutylquinoline-4-carboxamide bis (2,2,2-trifluoroacetate)]",0.301 µM
